Measured values from ChEMBL document CHEMBL1909046, “DrugMatrix in vitro pharmacology data”.

Assays:
[1] = target: Substance-P receptor (Homo sapiens, UniProt P25103); format: cell membranes, CHO, Membrane; conditions: cho; note: in other assays of this panel Not Active means under 50% inhibition at 10 µM
[2] = DRUGMATRIX: Serotonin (5-Hydroxytryptamine) 5-HT3 radioligand binding (ligand: [3H] GR-65630); format: cell membranes, Membrane; conditions: hek293, Not Active = under 50% inhibition at 10 µM
[3] = target: T1, Endothelin-1 receptor (Homo sapiens, UniProt P25101); format: cell membranes, CHO-K1, Membrane; conditions: cho-k1; note: in other assays of this panel Not Active means under 50% inhibition at 10 µM
T1 sequence (P25101 whole entry): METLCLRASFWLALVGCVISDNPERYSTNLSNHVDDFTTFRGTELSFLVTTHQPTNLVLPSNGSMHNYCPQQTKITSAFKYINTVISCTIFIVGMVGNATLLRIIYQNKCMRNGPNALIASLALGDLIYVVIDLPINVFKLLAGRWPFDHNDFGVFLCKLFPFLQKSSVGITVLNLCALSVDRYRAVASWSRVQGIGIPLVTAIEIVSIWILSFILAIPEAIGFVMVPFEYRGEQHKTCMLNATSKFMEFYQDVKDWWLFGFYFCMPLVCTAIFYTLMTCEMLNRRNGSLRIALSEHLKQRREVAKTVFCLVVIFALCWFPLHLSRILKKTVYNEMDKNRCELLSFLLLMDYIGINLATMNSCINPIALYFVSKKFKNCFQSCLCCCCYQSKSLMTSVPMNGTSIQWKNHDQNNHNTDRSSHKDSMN

[4] = target: Acetylcholinesterase (Homo sapiens, UniProt P22303); experiment: DRUGMATRIX: Acetylcholinesterase enzyme inhibition (substrate: acetylthiocholine); format: cell-based, HEK293; conditions: hek293; Not Active = under 50% inhibition at 10 µM
Acetylcholinesterase, sequence (P22303 whole entry): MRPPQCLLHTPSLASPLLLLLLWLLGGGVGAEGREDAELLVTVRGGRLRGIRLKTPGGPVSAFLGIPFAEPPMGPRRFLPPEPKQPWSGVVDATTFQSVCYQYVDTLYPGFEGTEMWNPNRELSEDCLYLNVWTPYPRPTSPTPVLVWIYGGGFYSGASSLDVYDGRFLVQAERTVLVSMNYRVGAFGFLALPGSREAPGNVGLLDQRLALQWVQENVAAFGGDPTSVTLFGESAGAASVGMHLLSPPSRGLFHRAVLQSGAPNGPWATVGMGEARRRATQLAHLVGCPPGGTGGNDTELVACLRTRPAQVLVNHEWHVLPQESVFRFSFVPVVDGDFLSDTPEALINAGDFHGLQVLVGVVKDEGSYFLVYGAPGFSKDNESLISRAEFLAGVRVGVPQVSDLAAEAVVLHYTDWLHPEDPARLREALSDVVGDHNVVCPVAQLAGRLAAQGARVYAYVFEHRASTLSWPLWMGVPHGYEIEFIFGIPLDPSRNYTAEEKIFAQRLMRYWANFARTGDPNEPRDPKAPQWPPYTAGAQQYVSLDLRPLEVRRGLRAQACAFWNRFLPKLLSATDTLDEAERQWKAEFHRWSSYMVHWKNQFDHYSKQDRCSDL

[5] = target: T2, Muscarinic acetylcholine receptor M2 (Homo sapiens, UniProt P08172); format: cell membranes, CHO-K1, Membrane; conditions: cho-k1; note: in other assays of this panel Not Active means under 50% inhibition at 10 µM
T2 sequence (P08172 whole entry): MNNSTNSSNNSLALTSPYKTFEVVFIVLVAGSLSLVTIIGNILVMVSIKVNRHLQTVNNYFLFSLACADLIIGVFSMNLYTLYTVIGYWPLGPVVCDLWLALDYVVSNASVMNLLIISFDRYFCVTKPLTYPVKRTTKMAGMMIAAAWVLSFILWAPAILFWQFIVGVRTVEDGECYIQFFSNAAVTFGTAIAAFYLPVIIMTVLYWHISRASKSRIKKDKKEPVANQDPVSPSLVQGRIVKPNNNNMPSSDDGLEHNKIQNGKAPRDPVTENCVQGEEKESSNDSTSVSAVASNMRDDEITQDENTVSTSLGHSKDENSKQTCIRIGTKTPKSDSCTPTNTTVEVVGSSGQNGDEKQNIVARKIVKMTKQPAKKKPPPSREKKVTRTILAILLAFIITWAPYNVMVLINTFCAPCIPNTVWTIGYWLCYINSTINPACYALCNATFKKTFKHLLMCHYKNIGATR

[6] = DRUGMATRIX: GABAA, Flunitrazepam, Central radioligand binding (ligand: [3H] Flunitrazepam); format: cell membranes, Rattus norvegicus, Wistar, Brain, Membrane; conditions: Not Active = under 50% inhibition at 10 µM
[7] = DRUGMATRIX: beta-Lactamase enzyme inhibition (substrate: Nitrocefin); set-up: species or system Bacillus cereus; conditions: Not Active = under 50% inhibition at 10 µM

Substance-P receptor, sequence (P25103 whole entry): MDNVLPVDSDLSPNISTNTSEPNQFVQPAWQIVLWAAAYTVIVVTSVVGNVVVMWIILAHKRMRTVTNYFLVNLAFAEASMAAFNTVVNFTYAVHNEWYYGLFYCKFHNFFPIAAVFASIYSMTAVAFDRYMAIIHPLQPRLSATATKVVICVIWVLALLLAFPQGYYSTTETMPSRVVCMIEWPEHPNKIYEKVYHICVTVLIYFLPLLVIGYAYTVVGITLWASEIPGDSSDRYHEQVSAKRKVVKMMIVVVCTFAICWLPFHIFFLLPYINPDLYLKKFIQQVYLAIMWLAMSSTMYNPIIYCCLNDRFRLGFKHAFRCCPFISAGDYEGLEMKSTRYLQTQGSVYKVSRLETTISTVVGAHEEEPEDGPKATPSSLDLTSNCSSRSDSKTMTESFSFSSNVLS

Row | Compound | IC50 [1] | IC50 [2] | Ki [2] | IC50 [3] | IC50 [4] | IC50 [5] | IC50 [6] | Ki [6] | IC50 [7] | Ki [7] | Ki [1] | Ki [3] | Ki [4] | Ki [5] | IC50 ([2]; read-out: IC50) | Ki ([2]; read-out: Ki)
1 | NCCCCCC(=O)O [AMINOCAPROIC ACID] | Not Active | Not Active | Not Active | Not Active | Not Active | Not Active | Not Active | Not Active | Not Active | Not Active |  |  |  |  |  | 
2 | CCC1(c2ccc(N)cc2)CCC(=O)NC1=O (stereo not drawn) [AMINOGLUTETHIMIDE] | Not Active | Not Active | Not Active | Not Active | Not Active | Not Active | Not Active | Not Active | Not Active | Not Active |  |  |  |  |  | 
3 | Cc1ccc(/N=C/N(C)/C=N/c2ccc(C)cc2C)c(C)c1 [AMITRAZ] | Not Active | Not Active | Not Active | Not Active | Not Active | Not Active | Not Active | Not Active | Not Active | Not Active |  |  |  |  |  | 
4 | CCOC(=O)C1=C(COCCN)NC(C)=C(C(=O)OC)C1c1ccccc1Cl (stereo not drawn) [AMLODIPINE] | Not Active | Not Active | Not Active | Not Active | Not Active | Not Active | Not Active | Not Active | Not Active | Not Active |  |  |  |  |  | 
5 | COc1ccc(C[C@H]2NC[C@H](O)[C@H]2OC(C)=O)cc1 [ANISOMYCIN] | Not Active | Not Active | Not Active | Not Active | Not Active | Not Active | Not Active | Not Active | Not Active | Not Active | Not Active | Not Active | Not Active | Not Active |  | 
6 | Nc1ncn([C@@H]2O[C@H](CO)[C@@H](O)[C@H]2O)c(=O)n1 [AZACITIDINE] | Not Active | Not Active | Not Active | Not Active | Not Active | Not Active | Not Active | Not Active | Not Active | Not Active |  |  |  |  |  | 
7 | CN(C)C(=O)Oc1cc(OC(=O)N(C)C)cc(C(O)CNC(C)(C)C)c1 (stereo not drawn) [BAMBUTEROL] | Not Active | Not Active | Not Active | Not Active | Not Active | Not Active | Not Active | Not Active | Not Active | Not Active |  |  |  |  |  | 
8 | c1ccc2c(c1)c1cccc3ccc4cccc2c4c31 [BENZO[E]PYRENE] | Not Active | Not Active | Not Active | Not Active | Not Active | Not Active | Not Active | Not Active | Not Active | Not Active |  |  |  |  |  | 
9 | CNCCc1ccccn1 [BETAHISTINE] | Not Active | Not Active | Not Active | Not Active | Not Active | Not Active | Not Active | Not Active | Not Active | Not Active |  |  |  |  |  | 
10 | CC(C)C(Br)C(=O)NC(N)=O (stereo not drawn) [BROMISOVALUM] | Not Active | Not Active | Not Active | Not Active | Not Active | Not Active | Not Active | Not Active | Not Active | Not Active |  |  |  |  |  | 
11 | CCCC1O[C@@H]2C[C@H]3[C@@H]4CCC5=CC(=O)C=C[C@]5(C)[C@H]4[C@@H](O)C[C@]3(C)[C@]2(C(=O)CO)O1 (stereo partly drawn) [BUDESONIDE] | Not Active | Not Active | Not Active | Not Active | Not Active | Not Active | Not Active | Not Active | Not Active | Not Active |  |  |  |  |  | 
12 | CN(C)CCCN1c2ccccc2Sc2ccc(Cl)cc21 [CHLORPROMAZINE] | Not Active |  |  | Not Active | Not Active |  | Not Active | Not Active | Not Active | Not Active |  |  |  |  | 7.37 µM | 1.66 µM
